Experimental data: patent US9352010B2, “Treatment of HIV-1 infection and AIDS” (The J. David Gladstone Institutes, priority 2011, dated 2016)
“Also recorded” adds a separate entry of the source. Where two headings read alike, the source gives them in different places.

Experiments:
[1] = tested on: CFSE-labeled CD4 T-cells; format: cell-based, human; conditions: for indirect killing (loss) of resting CFSE-labeled CD4 T-cells: NL4-3-infected effector cells
[2] = tested on: CFSE-labeled spleen CD4 T-cells; experiment: Indirect killing assay with CFSE-labeled human spleen cells; format: cell-based; conditions: for loss of CFSE-labeled spleen CD4 T-cells: HIV-infected spleen HLAC effectors; for loss of resting CFSE-labeled spleen CD4 T-cells: HIV-infected tonsil effector cells
Experimental: (B and C) Fresh human spleen from a single donor were processed into HLAC and assessed in indirect cell killing assay as described in FIG. 2A. Effector spleen HLAC were stimulated with PHA and IL-2 48 hours before mixing, but not during co-culturing with CFSE-labeled cells. Non-activated resting CFSE-labeled spleen cells were co-cultured with NL4-3-infected or uninfected effector cells in the presence or absence of the following drugs, AZT (5 μM), AMD3100 (250 nM), Efavirenz (100 nM), or Raltegravir (30 μM), as indicated. […] Percentages were normalized to the number of viable CFSE-positive spleen CD4 T-cells co-cultured with uninfected effectors in the presence of AZT, as depicted by (*). Error bars represent standard error of the mean for three experiments performed with three different spleen and tonsil donors.
Human tonsil or splenic tissues from routine tonsillectomies were obtained from the National Disease Research Interchange and the Cooperative Human Tissue Network and processed as previously described (Jekle et al., 2003, J Virol 77:5846-5854). In brief, tonsils or spleen were minced, passed through a 40-μm cell strainer, and cultured in 96-well U-bottomed polystyrene plates (2×10^6 cells/well) in medium (200 μl/well) consisting of RPMI 1640 supplemented with 15% heat-inactivated fetal bovine serum, 100 μg/ml gentamicin, 200 μg/ml ampicillin, 1 mM sodium pyruvate, 1% nonessential amino acids (Mediatech), 2 mM L-glutamine, and 1% fungizone (Invitrogen). All HIV-1 infections were carried out with 20-50 ng of HIV-1 p24^gag. Cells were incubated with the virus for 12-16 h, washed extensively, and supplemented with fresh medium. After day 5, infections were monitored by measuring p24gag levels in the culture medium using a FLAQ assay (Hayden et al., 2003, AIDS 17:629-631). Infected and uninfected cultures were manipulated as described for individual experiments. In “indirect killing” assays, unless otherwise stated, drugs were used at the following concentrations: 5 μM AZT; 250 nM AMD3100; 10 μg/ml T20; 100 nM Efavirenz; 1 μM Nevirapine; 30 μM Raltegravir; 60 μM 118-D-24; 5 μM Amprenavir; 5 μM Saquinavir; 5 μM Indinavir. CFSE-labeled cells were activated with PHA (5 μg/ml) and IL-2 (20 ng/ml) 2 days before mixing with effector cells.
Uninfected cells (5×10^6/ml) were labeled with 1 μM CFSE (Molecular Probes C1157), treated with 5 μM AZT for 24 h, and co-cultured with effector cells. CFSE readily diffuses into cells, where intracellular esterases cleave the acetate groups, converting it to a fluorescent, membrane-impermeable dye. […] To quantify indirect killing, mixed (CFSE-labeled+effector) cultures were washed in FACS buffer (PBS supplemented with 2 mM EDTA and 2% fetal bovine serum), stained with PE-conjugated anti-CD4, PerCP-conjugated anti-CD19, and APC-conjugated anti-CD8 (all from BD Pharmingen) and fixed in 1% paraformaldehyde. To determine the absolute numbers of the viable CFSE-labeled cells, a standard number of fluorescent beads (Flow-Count Fluorospheres, Beckman Coulter) was added to each cell-suspension sample before data acquisition. Data were collected on a FACS Calibur (BD Biosciences) and analyzed with Flowjo software (Treestar). The level of indirect killing was defined by sequential gating beginning with forward scatter versus side scatter to select live lymphocytes, subgating on the CFSE-positive population, and calculating the numbers of CD4 or CD8 T or B cells, divided by the number of fluorescent beads acquired.

[3] = tested on: IL-1β; experiment: Maturation and secretion of IL-1β in abortively infected tonsillar CD4 T-cells (Western blot); format: cell-based, human; conditions: AZT 5 μM, AMD3100 250 nM, efavirenz 100 nM
Experimental: For assessing the processing and secretion of IL-1β in abortively infected CD4 T-cells, CD4 T-cells were isolated from HLACs as described above, and were spinoculated with or without NL4-3 with the indicated drugs as describes above in vi (Spinoculation) and in FIG. 7B. For intracellular protein analysis, cells were lysed 72 hours after spinoculation in RIPA buffer (150 mM NaCl, 1% Nonidet P-40 (vol/vol), 0.5% […] (vol/vol), 0.1% SDS (vol/vol), 50 mM Tris-HCl (pH 8), 1 mM DTT), and EDTA-free Protease Inhibitor (Roche Applied Science, Cat. #04 693 132 001). For analysis of secreted IL-1β, supernatants (200 μl/1 million cells) from the rest of the CD4 T-cells were collected five days after spinoculation and analyzed using Western blot. For Western blots we used the Bio-Rad Criterion 15% pre-cast Tris-HCl gels. Primary antibodies used were 1/1000 of the mouse monoclonal anti-human IL-1β (R&D Systems, Cat. # MAB201) and 1/10000 of the mouse monoclonal anti-β-Actin (Sigma, Cat. # A5316).

Compound | depletion of activated CFSE-labeled CD4 T-cells ([1]; AZT-resistant HIV-1 clones, AZT 0.5 μM) | indirect killing (loss) of resting CFSE-labeled CD4 T-cells [1] | depletion of activated CFSE-labeled CD4 T-cells ([1]; PHA and IL-2 activated target cells, NL4-3 effectors) | loss of CFSE-labeled spleen CD4 T-cells [2] | loss of resting CFSE-labeled spleen CD4 T-cells [2] | maturation and release of bioactive 17 kDa IL-1β after NL4-3 infection [3] | indirect killing of CFSE-labeled CD4 T-cells ([1]; WEAU 16-8 (R5/X4)-infected effector cells) | AZT-induced killing of activated CFSE-labeled cells ([1]; activated target cells in the presence of AZT) | indirect killing of CFSE-labeled CD4 T-cells ([1]; GIA-SKY (T20-dependent)-infected effector cells, 1 μg/ml T20) | indirect killing of CFSE-labeled CD4 T-cells ([1]; SIM (T20-resistant)-infected effector cells)
Cc1cn([C@H]2C[C@H](N=[N+]=[N-])[C@@H](CO)O2)c(=O)[nH]c1=O [AZT] | did not deplete | robust | extensively depleted in cultures containing AZT | robust in the absence of drugs or in the presence of AZT | massively depleted | similarly resulted in maturation and release of the bioactive 17 kDa IL-1β; also recorded: also resulted in release of bioactive 17-kDa IL-1β | – | – | – | –
O=C1Nc2ccc(Cl)cc2[C@@](C#CC2CC2)(C(F)(F)F)O1 [efavirenz] | – | blocked indirect killing of resting CD4 T-cells as efficiently as AMD3100 | – | prevented the loss of CD4 T-cells as efficiently as AMD3100 | prevented this loss of CD4 T-cells | completely prevented; also recorded: blocked | – | – | – | –
c1cc(CN2CCCNCCNCCCNCC2)ccc1CN1CCCNCCNCCCNCC1 [AMD3100] | – | – | – | prevented the loss of CD4 T-cells as efficiently as AMD3100 | – | completely prevented; also recorded: blocked | prevented indirect killing | prevented the AZT-induced killing | – | –
enfuvirtide | – | greatly inhibited indirect killing | – | – | – | – | – | – | Indirect killing was observed | did not inhibit indirect killing
